Measurements taken from EP4744680A1, “TARGETED CHEMICAL DRUG AND PREPARATION METHOD THEREFOR, PHARMACEUTICAL COMPOSITION, AND USE OF TARGETED CHEMICAL DRUG” (Bai Yao Zhi Da (Beijing) Nanobio Technology Co., Ltd., priority 2023, dated 2025).

Assays:
[1] = Body weight in the N87 study of the Example 1 drug; assay type: in vivo, mouse (BALB/c nude); conditions: 0.06mg i.v. (tail vein) twice per week for 5 weeks
[2] = Body weight in the N87 study of the Example 5 drug; assay type: in vivo, mouse (BALB/c nude); conditions: 0.12mg i.v. (tail vein) once every 5 days, 5 administrations
[3] = test system: N87 human gastric carcinoma; test: Comparative in-vivo efficacy test in the N87 mouse gastric carcinoma model (drugs of Example 5 and Example 7); design: species or system mouse (BALB/c-nu)
From the text: • Species/strain: BALB/c nude (BALB/c-nu) • Age: 6-8 weeks • Sex: Male • Body weight: 17-19 g
1).Inoculation and grouping: For the N87 human gastric carcinoma model, male BALB/c-nu mice (17.0-19.0 g) were used.Under aseptic conditions, N87 tumor tissue was excised and cut into 2.0 mm × 2.0 mm × 2.0 mm tumor blocks, which were implanted subcutaneously into the left axillary dorsal region of each nude mouse. The day of implantation was designated as Day 0 (D0).When tumor volume reached approximately 250.0 mm^3 (D6), animals with poor tumor take were excluded, and the remaining animals were randomized into groups according to tumor volume; dosing commenced on the day of randomization. 2).Dosing regimen: Table 27
Tumor size is measured three times per week using a vernier caliper. The long diameter (a) and short diameter (b) are recorded. Tumor volume is calculated as: V=0.5×a×b^2
(§1) RTV = Vt /V0 , [formula] where V0 is the tumor volume at grouping/first dosing (D0) and Vt is the tumor volume at each measurement time point.

A549 lung carcinoma [4] = test: In-vivo efficacy study in the A549 mouse lung carcinoma model (drug of Example 3); design: species or system mouse (BALB/c-nu)
Method: • Species/strain: BALB/c nude (BALB/c-nu) • Age: 6-7 weeks • Sex: Male • Body weight: 16-18 g
The day of implantation was designated as Day 0 (D0).When the tumor volume reached approximately 100.0 mm^3 (D5), animals with poor tumor take were excluded, the remaining animals were randomized by tumor volume, and dosing commenced on the day of randomization. 2).Dosing regimen: Table 31
(§2) Tumor size is measured twice per week using a vernier caliper. The long diameter (a) and short diameter (b) are recorded. Tumor volume is calculated as: V=0.5×a×b^2.
RTV = Vt /V0 , [formula] where V0 is the tumor volume at grouping/first dosing (D0), and Vt is the tumor volume at each measurement time point.

[5] = Body weight in the A549 study of the Example 3 drug; assay type: in vivo, mouse (BALB/c-nu)
A549 lung carcinoma [6] = test: In-vivo efficacy study in the A549 mouse lung carcinoma model (drugs of Example 6 and Example 20); design: species or system mouse (BALB/cAnSlacNifdc-nu); conditions: for Tumor growth inhibition rate (TGI, %) at different days post-inoculation: 0.12mg/20g i.v. (tail vein) once weekly, 3 administrations
From the text: • Species/strain: BALB/cAnSlacNifdc-nu • Sex: Male • Body weight: 17-21 g
1).Inoculation and grouping: For the A549 mouse lung carcinoma model, male BALB/cAnSlacNifdc-nu mice weighing 17.0-21.0 g were used. Under aseptic conditions, A549 tumor tissue was excised and cut into 2.0 mm × 2.0 mm × 2.0 mm tumor blocks, which were implanted subcutaneously into the left axillary dorsal region of nude mice. The day of implantation was designated as Day 0 (D0).When the tumor volume reached approximately 150.0 mm^3 (D7), animals were randomized by tumor volume into four groups: A (vehicle control), B, C, and D (drug), with 8 animals per group. On the day of randomization, all groups began intravenous (tail-vein) dosing. Groups A, B, C, and subgroup D1 were dosed once weekly for a total of 3 administrations; subgroup D2 was dosed twice weekly for a total of 6 administrations. 2).Dosing regimen: Table 34
as §2, §1

U251-RFP human glioma = test: In-vivo efficacy study in the U251-RFP human glioma orthotopic mouse model (drug of Example 9); design: species or system mouse (BALB/c nude); conditions: 6mg/Kg i.v. (tail vein) twice weekly, 8 administrations
From the text: 2.Dosing regimen: Table 41

[7] = Body weight and general condition in the U251 study; assay type: in vivo, mouse (BALB/c nude); conditions: Group 3, around D10 post-dosing; 6mg/Kg i.v. twice weekly; possibly due to drug toxicity
[8] = 41 days post-N87 inoculation, 0.12mg i.v. (tail vein) once weekly for 6 weeks
[9] = end of the study (D32 or D25), targeted drug: high- and medium-dose
[10] = end of the study (D29), intravenous administration

COc1cccc2c1C(=O)c1c(O)c3c(c(O)c1C2=O)C[C@@](O)(C(=O)CO)C[C@@H]3O[C@H]1C[C@H](N)[C@@H](O)[C@H](C)O1 [Epirubicin drug substance (API), Epirubicin]
Body-weight difference between Day 37 and Day 6 [1]: 0.91 g | Body-weight difference (g) between Day 23 and Day 5 [2]: -3.84 g | Tumor weight [3, 8]: 0.62 ± 0.55 g | Tumor-weight inhibition rate, IRTW (%) [3, 8]: 51.74% | Tumor growth inhibition rate (TGI, %) at different post-inoculation days ([3]; Day 10, 0.12mg i.v. (tail vein) once weekly for 6 weeks): 41.17% | Tumor growth inhibition rate (TGI, %) at different post-inoculation days ([3]; Day 13, 0.12mg i.v. (tail vein) once weekly for 6 weeks): 34.62% | Tumor growth inhibition rate (TGI, %) at different post-inoculation days ([3]; Day 17, 0.12mg i.v. (tail vein) once weekly for 6 weeks): 37.16% | Tumor growth inhibition rate (TGI, %) at different post-inoculation days ([3]; Day 20, 0.12mg i.v. (tail vein) once weekly for 6 weeks): 35.17% | Tumor growth inhibition rate (TGI, %) at different post-inoculation days ([3]; Day 24, 0.12mg i.v. (tail vein) once weekly for 6 weeks): 43.86% | Tumor growth inhibition rate (TGI, %) at different post-inoculation days ([3]; Day 27, 0.12mg i.v. (tail vein) once weekly for 6 weeks): 43.86% | Tumor growth inhibition rate (TGI, %) at different post-inoculation days ([3]; Day 31, 0.12mg i.v. (tail vein) once weekly for 6 weeks): 44.19% | Tumor growth inhibition rate (TGI, %) at different post-inoculation days ([3]; Day 34, 0.12mg i.v. (tail vein) once weekly for 6 weeks): 42.97% | Tumor growth inhibition rate (TGI, %) at different post-inoculation days ([3]; Day 38, 0.12mg i.v. (tail vein) once weekly for 6 weeks): 40.97% | Tumor growth inhibition rate (TGI, %) at different post-inoculation days ([3]; Day 41, 0.12mg i.v. (tail vein) once weekly for 6 weeks): 51.83% | tumor growth inhibition rate calculated from tumor weight and tumor volume ([3]; end of the study (D41), tail-vein injection): < 60% | Tumor growth inhibition rate (TGI, %) at different days post-inoculation (A549 lung carcinoma [4]; Day 8, 0.08mg i.v. (tail vein) twice weekly for 5 weeks): 19.90% | Tumor growth inhibition rate (TGI, %) at different days post-inoculation (A549 lung carcinoma [4]; Day 8, 0.12mg i.v. (tail vein) twice weekly for 5 weeks): 17.42% | Tumor growth inhibition rate (TGI, %) at different days post-inoculation (A549 lung carcinoma [4]; Day 8, 0.14mg i.v. (tail vein) twice weekly for 5 weeks): 17.47% | Tumor growth inhibition rate (TGI, %) at different days post-inoculation (A549 lung carcinoma [4]; Day 11, 0.08mg i.v. (tail vein) twice weekly for 5 weeks): 17.02% | Tumor growth inhibition rate (TGI, %) at different days post-inoculation (A549 lung carcinoma [4]; Day 11, 0.12mg i.v. (tail vein) twice weekly for 5 weeks): 15.55% | Tumor growth inhibition rate (TGI, %) at different days post-inoculation (A549 lung carcinoma [4]; Day 11, 0.14mg i.v. (tail vein) twice weekly for 5 weeks): 28.43% | Tumor growth inhibition rate (TGI, %) at different days post-inoculation (A549 lung carcinoma [4]; Day 14, 0.08mg i.v. (tail vein) twice weekly for 5 weeks): -12.27% | Tumor growth inhibition rate (TGI, %) at different days post-inoculation (A549 lung carcinoma [4]; Day 14, 0.12mg i.v. (tail vein) twice weekly for 5 weeks): -4.64% | Tumor growth inhibition rate (TGI, %) at different days post-inoculation (A549 lung carcinoma [4]; Day 14, 0.14mg i.v. (tail vein) twice weekly for 5 weeks): 6.41% | Tumor growth inhibition rate (TGI, %) at different days post-inoculation (A549 lung carcinoma [4]; Day 17, 0.08mg i.v. (tail vein) twice weekly for 5 weeks): 10.74% | Tumor growth inhibition rate (TGI, %) at different days post-inoculation (A549 lung carcinoma [4]; Day 17, 0.12mg i.v. (tail vein) twice weekly for 5 weeks): 28.37% | Tumor growth inhibition rate (TGI, %) at different days post-inoculation (A549 lung carcinoma [4]; Day 17, 0.14mg i.v. (tail vein) twice weekly for 5 weeks): 31.81% | Tumor growth inhibition rate (TGI, %) at different days post-inoculation (A549 lung carcinoma [4]; Day 22, 0.08mg i.v. (tail vein) twice weekly for 5 weeks): 10.11% | Tumor growth inhibition rate (TGI, %) at different days post-inoculation (A549 lung carcinoma [4]; Day 22, 0.12mg i.v. (tail vein) twice weekly for 5 weeks): 8.93% | Tumor growth inhibition rate (TGI, %) at different days post-inoculation (A549 lung carcinoma [4]; Day 22, 0.14mg i.v. (tail vein) twice weekly for 5 weeks): 12.37% | Tumor growth inhibition rate (TGI, %) at different days post-inoculation (A549 lung carcinoma [4]; Day 25, 0.12mg i.v. (tail vein) twice weekly for 5 weeks): 41.13% | Tumor growth inhibition rate (TGI, %) at different days post-inoculation (A549 lung carcinoma [4]; Day 25, 0.14mg i.v. (tail vein) twice weekly for 5 weeks): 44.37% | Tumor growth inhibition rate (TGI, %) at different days post-inoculation (A549 lung carcinoma [4]; Day 29, 0.08mg i.v. (tail vein) twice weekly for 5 weeks): 2.07% | Tumor growth inhibition rate (TGI, %) at different days post-inoculation (A549 lung carcinoma [4]; Day 29, 0.12mg i.v. (tail vein) twice weekly for 5 weeks): 34.27% | Tumor growth inhibition rate (TGI, %) at different days post-inoculation (A549 lung carcinoma [4]; Day 29, 0.14mg i.v. (tail vein) twice weekly for 5 weeks): 31.80% | Tumor growth inhibition rate (TGI, %) at different days post-inoculation (A549 lung carcinoma [4]; Day 32, 0.08mg i.v. (tail vein) twice weekly for 5 weeks): 13.19% | Tumor growth inhibition rate (TGI, %) at different days post-inoculation (A549 lung carcinoma [4]; Day 32, 0.12mg i.v. (tail vein) twice weekly for 5 weeks): 33.27% | Tumor growth inhibition rate (TGI, %) at different days post-inoculation (A549 lung carcinoma [4]; Day 32, 0.14mg i.v. (tail vein) twice weekly for 5 weeks): 24.63% | T/C (A549 lung carcinoma [4]; [9]): greater than 40% | tumor growth inhibition rate (calculated on the basis of tumor weight and tumor volume) (A549 lung carcinoma [4]; [9]): less than 60% | Body-weight difference (g) between Day 32 and Day 5 ([5]; 0.08mg i.v. (tail vein) twice weekly for 5 weeks): 6.3 g | Body-weight difference (g) between Day 32 and Day 5 ([5]; 0.12mg i.v. (tail vein) twice weekly for 5 weeks): 6.1 g | Body-weight difference (g) between Day 32 and Day 5 ([5]; 0.14mg i.v. (tail vein) twice weekly for 5 weeks): 0.2 g | Tumor growth inhibition rate (TGI, %) at different days post-inoculation (A549 lung carcinoma [6]; Day 11): 27.01% | Tumor growth inhibition rate (TGI, %) at different days post-inoculation (A549 lung carcinoma [6]; Day 14): 45.82% | Tumor growth inhibition rate (TGI, %) at different days post-inoculation (A549 lung carcinoma [6]; Day 18): 43.61% | Tumor growth inhibition rate (TGI, %) at different days post-inoculation (A549 lung carcinoma [6]; Day 21): 44.97% | Tumor growth inhibition rate (TGI, %) at different days post-inoculation (A549 lung carcinoma [6]; Day 25): 46.31% | Tumor growth inhibition rate (TGI, %) at different days post-inoculation (A549 lung carcinoma [6]; Day 29): 49.64% | T/C (A549 lung carcinoma [6]; [10]): greater than 40% | tumor growth inhibition rate (calculated based on tumor volume) (A549 lung carcinoma [6]; [10]): less than 60% | Tumor growth inhibition rate (TGI, %) at different days post-inoculation (U251-RFP human glioma; Day 6): 35.8% | Tumor growth inhibition rate (TGI, %) at different days post-inoculation (U251-RFP human glioma; Day 10): -3.9% | Tumor growth inhibition rate (TGI, %) at different days post-inoculation (U251-RFP human glioma; Day 13): -7.1% | Tumor growth inhibition rate (TGI, %) at different days post-inoculation (U251-RFP human glioma; Day 17): 19.4% | body weight of the mice (and spontaneous activity) [7]: started to decrease
